From article PMC3755381 (Australian journal of chemistry, 2012)
pIC50: −log10 of the molar value.

Tests used:
Type in all cases: biochemical
class I PI3K isoforms = assay: Inhibition of PI3K isoforms; details: for inhibition of PI3K: same compounds synthesized by compound 5 as key intermediate (no contaminant)
PI3Kγ = PI3Kγ (Homo sapiens, UniProt P48736); assay: PI3Kγ inhibition
PI3Kβ = PI3Kβ (Homo sapiens, UniProt P42338); assay: PI3Kβ inhibition
PI3Kδ = PI3Kδ (Homo sapiens, UniProt O00329); assay: PI3Kδ inhibition
PI3Kδ, sequence (O00329 whole entry, species assumed): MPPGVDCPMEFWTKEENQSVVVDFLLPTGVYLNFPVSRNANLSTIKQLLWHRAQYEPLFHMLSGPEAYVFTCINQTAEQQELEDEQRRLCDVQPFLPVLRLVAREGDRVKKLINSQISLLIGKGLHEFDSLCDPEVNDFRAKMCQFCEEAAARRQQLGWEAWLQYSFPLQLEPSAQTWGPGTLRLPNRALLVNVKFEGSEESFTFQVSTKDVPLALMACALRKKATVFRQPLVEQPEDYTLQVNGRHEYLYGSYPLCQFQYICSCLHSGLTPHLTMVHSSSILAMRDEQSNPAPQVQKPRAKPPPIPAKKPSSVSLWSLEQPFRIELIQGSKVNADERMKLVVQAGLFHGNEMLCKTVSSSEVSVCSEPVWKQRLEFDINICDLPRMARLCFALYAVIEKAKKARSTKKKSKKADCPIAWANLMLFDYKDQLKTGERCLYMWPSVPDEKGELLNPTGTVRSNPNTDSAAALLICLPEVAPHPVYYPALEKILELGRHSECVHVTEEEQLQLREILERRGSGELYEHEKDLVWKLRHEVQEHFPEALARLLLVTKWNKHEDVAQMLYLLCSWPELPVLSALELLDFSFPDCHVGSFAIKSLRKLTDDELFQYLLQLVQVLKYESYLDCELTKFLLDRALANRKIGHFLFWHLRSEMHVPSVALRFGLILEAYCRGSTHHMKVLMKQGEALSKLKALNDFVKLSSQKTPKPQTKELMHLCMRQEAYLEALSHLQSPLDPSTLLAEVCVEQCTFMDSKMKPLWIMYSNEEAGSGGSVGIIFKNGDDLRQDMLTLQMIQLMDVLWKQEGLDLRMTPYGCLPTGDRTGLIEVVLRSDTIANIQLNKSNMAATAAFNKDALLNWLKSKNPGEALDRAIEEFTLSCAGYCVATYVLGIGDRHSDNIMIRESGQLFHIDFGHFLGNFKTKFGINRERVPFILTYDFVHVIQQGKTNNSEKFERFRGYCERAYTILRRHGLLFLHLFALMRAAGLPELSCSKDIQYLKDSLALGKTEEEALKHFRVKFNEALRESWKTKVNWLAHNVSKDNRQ
PI3Kδ, sequence (P27986 whole entry partner, species assumed): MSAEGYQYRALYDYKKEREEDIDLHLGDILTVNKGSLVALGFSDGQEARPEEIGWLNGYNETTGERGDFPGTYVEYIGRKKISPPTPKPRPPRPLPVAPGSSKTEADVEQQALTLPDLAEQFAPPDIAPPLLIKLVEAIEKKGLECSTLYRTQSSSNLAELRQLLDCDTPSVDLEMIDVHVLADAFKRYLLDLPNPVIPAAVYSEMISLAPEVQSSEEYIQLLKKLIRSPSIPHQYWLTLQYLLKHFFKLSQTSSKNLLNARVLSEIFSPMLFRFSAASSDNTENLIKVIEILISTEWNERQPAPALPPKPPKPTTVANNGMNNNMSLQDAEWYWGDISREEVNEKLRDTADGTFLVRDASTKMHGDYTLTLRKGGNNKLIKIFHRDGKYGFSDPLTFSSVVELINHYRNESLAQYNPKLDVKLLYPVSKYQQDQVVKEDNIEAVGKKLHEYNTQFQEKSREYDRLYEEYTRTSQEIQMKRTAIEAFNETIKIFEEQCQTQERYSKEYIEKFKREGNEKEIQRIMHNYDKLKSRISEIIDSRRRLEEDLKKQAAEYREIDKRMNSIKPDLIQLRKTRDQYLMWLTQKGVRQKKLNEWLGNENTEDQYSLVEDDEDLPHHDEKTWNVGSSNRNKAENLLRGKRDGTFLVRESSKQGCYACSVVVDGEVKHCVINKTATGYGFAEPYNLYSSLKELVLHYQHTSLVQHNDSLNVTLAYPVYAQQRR

PI3Kα = PI3Kα (Homo sapiens, UniProt P42336); assay: PI3Kα inhibition
PI3Kα, sequence (P42336 whole entry, species assumed): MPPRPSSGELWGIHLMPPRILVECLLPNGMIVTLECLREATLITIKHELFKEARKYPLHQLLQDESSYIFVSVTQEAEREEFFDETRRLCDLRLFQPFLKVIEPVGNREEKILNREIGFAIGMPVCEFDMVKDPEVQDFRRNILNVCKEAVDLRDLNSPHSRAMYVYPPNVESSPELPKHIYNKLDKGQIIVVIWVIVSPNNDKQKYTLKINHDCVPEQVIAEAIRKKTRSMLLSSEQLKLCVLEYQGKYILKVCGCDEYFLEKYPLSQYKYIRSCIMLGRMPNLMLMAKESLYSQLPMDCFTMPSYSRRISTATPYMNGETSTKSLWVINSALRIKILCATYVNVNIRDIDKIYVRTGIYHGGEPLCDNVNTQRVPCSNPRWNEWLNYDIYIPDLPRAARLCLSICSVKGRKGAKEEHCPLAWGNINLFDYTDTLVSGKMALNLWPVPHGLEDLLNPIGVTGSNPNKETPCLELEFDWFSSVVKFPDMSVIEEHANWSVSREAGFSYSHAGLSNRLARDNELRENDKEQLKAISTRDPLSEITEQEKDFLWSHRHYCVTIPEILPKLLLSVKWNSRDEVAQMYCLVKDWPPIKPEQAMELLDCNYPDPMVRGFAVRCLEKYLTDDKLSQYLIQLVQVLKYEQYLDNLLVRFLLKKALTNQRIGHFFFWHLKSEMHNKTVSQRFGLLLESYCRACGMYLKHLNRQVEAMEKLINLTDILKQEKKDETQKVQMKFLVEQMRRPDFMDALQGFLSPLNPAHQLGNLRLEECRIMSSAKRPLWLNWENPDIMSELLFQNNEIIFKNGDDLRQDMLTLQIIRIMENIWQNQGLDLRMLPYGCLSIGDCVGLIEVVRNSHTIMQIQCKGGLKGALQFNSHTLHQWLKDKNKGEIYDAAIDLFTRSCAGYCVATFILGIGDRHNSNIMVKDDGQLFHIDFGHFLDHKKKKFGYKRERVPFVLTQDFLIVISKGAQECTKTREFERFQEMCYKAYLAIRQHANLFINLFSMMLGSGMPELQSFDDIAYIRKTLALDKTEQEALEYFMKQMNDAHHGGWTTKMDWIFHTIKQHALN
PI3Kα, sequence (P27986 whole entry partner, species assumed): as the sequence (P27986 whole entry partner, species assumed) above

PDE4 = PDE4 inhibition; details: for pIC50: read-out: PDE4 inhibition IC50
PDE2 = PDE2 (Homo sapiens, UniProt O00408); assay: PDE2 inhibition
PDE2, sequence (O00408 whole entry): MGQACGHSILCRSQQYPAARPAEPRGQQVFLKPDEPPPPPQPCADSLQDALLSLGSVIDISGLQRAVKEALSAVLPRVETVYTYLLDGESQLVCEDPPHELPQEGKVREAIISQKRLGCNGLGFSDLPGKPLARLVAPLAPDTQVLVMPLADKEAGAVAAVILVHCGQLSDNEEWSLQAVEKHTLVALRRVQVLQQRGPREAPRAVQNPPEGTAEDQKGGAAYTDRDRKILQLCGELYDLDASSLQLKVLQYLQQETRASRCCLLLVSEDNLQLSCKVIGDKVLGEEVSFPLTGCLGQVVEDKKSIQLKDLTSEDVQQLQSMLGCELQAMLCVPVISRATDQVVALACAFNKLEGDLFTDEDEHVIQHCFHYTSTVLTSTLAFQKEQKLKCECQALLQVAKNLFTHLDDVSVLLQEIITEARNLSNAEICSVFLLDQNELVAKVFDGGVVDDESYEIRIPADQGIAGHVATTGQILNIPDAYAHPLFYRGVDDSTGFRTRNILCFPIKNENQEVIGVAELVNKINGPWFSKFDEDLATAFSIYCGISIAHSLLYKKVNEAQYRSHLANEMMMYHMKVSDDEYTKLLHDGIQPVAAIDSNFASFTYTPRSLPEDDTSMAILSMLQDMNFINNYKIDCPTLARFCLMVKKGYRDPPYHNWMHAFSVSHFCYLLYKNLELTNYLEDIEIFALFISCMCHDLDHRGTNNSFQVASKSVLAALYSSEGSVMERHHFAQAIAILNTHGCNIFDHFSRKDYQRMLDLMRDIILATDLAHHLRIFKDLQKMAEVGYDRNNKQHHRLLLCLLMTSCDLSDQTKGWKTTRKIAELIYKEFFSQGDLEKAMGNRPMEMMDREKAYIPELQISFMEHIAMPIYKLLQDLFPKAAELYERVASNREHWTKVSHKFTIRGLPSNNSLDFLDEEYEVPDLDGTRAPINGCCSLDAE

PI3Kβ, sequence (P42338 whole entry, species assumed): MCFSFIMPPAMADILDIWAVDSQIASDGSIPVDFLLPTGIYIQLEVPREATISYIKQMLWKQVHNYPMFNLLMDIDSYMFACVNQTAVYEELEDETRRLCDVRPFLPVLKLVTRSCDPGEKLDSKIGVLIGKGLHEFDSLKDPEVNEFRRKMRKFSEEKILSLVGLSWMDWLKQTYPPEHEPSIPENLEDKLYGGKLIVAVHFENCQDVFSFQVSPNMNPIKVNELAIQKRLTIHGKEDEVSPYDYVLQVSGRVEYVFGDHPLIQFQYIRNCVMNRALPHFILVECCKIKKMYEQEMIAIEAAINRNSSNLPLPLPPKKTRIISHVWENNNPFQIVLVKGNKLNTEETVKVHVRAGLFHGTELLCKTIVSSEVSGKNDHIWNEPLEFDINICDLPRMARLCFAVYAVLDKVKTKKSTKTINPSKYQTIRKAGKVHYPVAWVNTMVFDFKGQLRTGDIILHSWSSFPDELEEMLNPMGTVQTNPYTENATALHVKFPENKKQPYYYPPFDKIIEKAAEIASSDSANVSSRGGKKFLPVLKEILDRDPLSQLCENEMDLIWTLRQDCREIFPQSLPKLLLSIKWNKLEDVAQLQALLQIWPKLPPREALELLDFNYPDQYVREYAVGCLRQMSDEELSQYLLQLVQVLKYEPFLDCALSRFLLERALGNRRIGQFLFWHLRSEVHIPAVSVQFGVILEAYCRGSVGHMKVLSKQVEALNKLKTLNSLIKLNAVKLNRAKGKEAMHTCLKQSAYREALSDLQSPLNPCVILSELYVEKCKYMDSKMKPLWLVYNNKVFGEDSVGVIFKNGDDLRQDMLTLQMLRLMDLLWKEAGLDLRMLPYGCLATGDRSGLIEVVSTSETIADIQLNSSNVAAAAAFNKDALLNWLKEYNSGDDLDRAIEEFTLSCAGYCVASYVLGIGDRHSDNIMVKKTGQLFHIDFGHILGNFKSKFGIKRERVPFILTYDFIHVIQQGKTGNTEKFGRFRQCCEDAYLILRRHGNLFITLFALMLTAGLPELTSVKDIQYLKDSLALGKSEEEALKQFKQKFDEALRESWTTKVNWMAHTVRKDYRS
PI3Kβ, sequence (P27986 whole entry partner, species assumed): as the sequence (P27986 whole entry partner, species assumed) above

`O=C1NC(=O)/C(=C/c2ccc3c(c2)OCO3)S1` [Compound 2, (Z)-5-(Benzo[d][1,3]dioxol-5-ylmethylene) thiazolidine-2,4-dione, reference compound] was tested, and the “inhibition of PI3K isoforms (in words)” value (class I PI3K isoforms) was “potent inhibitor”, the pIC50 (PI3Kγ) was 7.40 and the pIC50 (PI3Kβ) was 6.22.
In the case of `O=C1NC(=S)/C(=C/c2ccc3c(c2)OCO3)S1` [Compound 4, (Z)-5-(Benzo[d][1,3]dioxol-5-ylmethylene)-4-thioxothiazolidin-2-one], the pIC50 (PI3Kγ) was 6.92, the pIC50 (PI3Kδ) was 6.12 and the pIC50 (PI3Kβ) was 6.82.
For `CSC1=NC(=O)S/C1=C\c1ccc2c(c1)OCO2` [Compound 5, (Z)-5-(Benzo[d][1,3]dioxol-5-ylmethylene)-4-(methylthio)thiazol-2(5H)-one], the pIC50 (PI3Kγ) was 7.22, the pIC50 (PI3Kα) was 7.25 and the pIC50 (PI3Kδ) was 7.42. It also gave a pIC50 (PI3Kβ) of under 6.00.
In the case of `C[C@H](/N=C1\NC(=O)S\C1=C/c1ccc2c(c1)OCO2)C(=O)O` [Compound 7aa, (S)-2-((Z)-((Z)-5-(Benzo[d][1,3]dioxol-5-ylmethylene)-2-oxothiazolidin-4-ylidene)amino)propanoic Acid], the pIC50 (PI3Kγ) was 4.84, the pIC50 (PI3Kα) was 4.72 and the pIC50 (PI3Kδ) was 4.21. It also gave a pIC50 (PI3Kβ) of 4.03.
`O=C1NC(=N\[C@@H](Cc2c[nH]c3ccccc23)C(=O)O)/C(=C/c2ccc3c(c2)OCO3)S1` [Compound 7ab] showed a pIC50 (PI3Kγ) of 4.96, a pIC50 (PI3Kα) of 4.59 and a pIC50 (PI3Kδ) of 4.37. The pIC50 (PI3Kβ) was 4.10.
In the case of `O=C1NC(=N\CCc2ccc(O)cc2)/C(=C/c2ccc3c(c2)OCO3)S1` [Compound 7e, (4Z,5Z)-5-(Benzo[d][1,3]dioxol-5-ylmethylene)-4-((4-hydroxyphenethyl)imino)thiazolidin-2-one], the “inhibition of PI3K” value (class I PI3K isoforms) was “no inhibition”.
For `O=C1NC(=N\C2CCCC2)/C(=C/c2ccc3c(c2)OCO3)S1` [Compound 7f, (4Z,5Z)-5-(Benzo[d][1,3]dioxol-5-ylmethylene)-4-(cyclopentylimino)thiazolidin-2-one], the “inhibition of PI3K” value (class I PI3K isoforms) was “no inhibition”.
With `COc1ccc(C/N=C2\NC(=O)S\C2=C/c2ccc3c(c2)OCO3)cc1OC` [Compound 7p, (4Z,5Z)-5-(Benzo[d][1,3]dioxol-5-ylmethylene)-4-((3,4-dimethoxybenzyl)imino)thiazolidin-2-one] the “inhibition of PI3K isoforms (in words)” value (class I PI3K isoforms) was “no inhibition”, the pIC50 (PI3Kγ) was under 4.00 and the pIC50 (PI3Kα) was under 4.00. It also gave a pIC50 (PDE4) of 5.29, a pIC50 (PI3Kδ) of under 4.00 and a pIC50 (PI3Kβ) of under 4.00. It also gave a pIC50 (PDE2) of 5.33.
`C/N=C1\NC(=O)S\C1=C/c1ccc2c(c1)OCO2` [Compound 7x, (4Z,5Z)-5-(Benzo[d][1,3]dioxol-5-ylmethylene)-4-(methylimino)thiazolidin-2-one] was tested, and the pIC50 (PI3Kγ) was under 4.00, the pIC50 (PI3Kα) was 4.05 and the “activity against PDE4 (in words)” value (PDE4) was “virtually inactive”. For the same molecule, the pIC50 (PDE4) was under 5.00, the pIC50 (PI3Kδ) was under 4.00 and the pIC50 (PI3Kβ) was under 4.00. For the same molecule, the pIC50 (PDE2) was under 5.00 and the “activity against PDE2 (in words)” value (PDE2) was “virtually inactive”.
With `CC(O)C/N=C1\NC(=O)S\C1=C/c1ccc2c(c1)OCO2` (stereo not shown) [Compound 7z, (4Z,5Z)-5-(Benzo[d][1,3]dioxol-5-ylmethylene)-4-((2-hydroxypropyl)imino)thiazolidin-2-one] the pIC50 (PI3Kγ) was under 4.00, the pIC50 (PI3Kα) was under 4.00 and the “activity against PDE4 (in words)” value (PDE4) was “virtually inactive”. The pIC50 (PDE4) was under 5.00, the pIC50 (PI3Kδ) was under 4.00 and the pIC50 (PI3Kβ) was under 4.00. The pIC50 (PDE2) was under 5.00 and the “activity against PDE2 (in words)” value (PDE2) was “virtually inactive”.
